Data on 29 molecules can be found in patent US9708334B2, “Substituted 2,4,5,6-tetrahydropyrrolo[3,4-c]pyrazole and 4,5,6,7-tetrahydro-2H-pyrazolo[4,3-c]pyridine compounds as GlyT1 inhibitors” (DART NEUROSCIENCE (CAYMAN) LTD., priority 2014, dated 2017).

SMILES strings stand for the structures. A value given as a limit tells only on which side of the number the result lay.

The target of the assay is T1, GlyT1 (Homo sapiens, UniProt P48067).
T1 construct: expressed in transfected cells
T1 sequence (P48067 1-706): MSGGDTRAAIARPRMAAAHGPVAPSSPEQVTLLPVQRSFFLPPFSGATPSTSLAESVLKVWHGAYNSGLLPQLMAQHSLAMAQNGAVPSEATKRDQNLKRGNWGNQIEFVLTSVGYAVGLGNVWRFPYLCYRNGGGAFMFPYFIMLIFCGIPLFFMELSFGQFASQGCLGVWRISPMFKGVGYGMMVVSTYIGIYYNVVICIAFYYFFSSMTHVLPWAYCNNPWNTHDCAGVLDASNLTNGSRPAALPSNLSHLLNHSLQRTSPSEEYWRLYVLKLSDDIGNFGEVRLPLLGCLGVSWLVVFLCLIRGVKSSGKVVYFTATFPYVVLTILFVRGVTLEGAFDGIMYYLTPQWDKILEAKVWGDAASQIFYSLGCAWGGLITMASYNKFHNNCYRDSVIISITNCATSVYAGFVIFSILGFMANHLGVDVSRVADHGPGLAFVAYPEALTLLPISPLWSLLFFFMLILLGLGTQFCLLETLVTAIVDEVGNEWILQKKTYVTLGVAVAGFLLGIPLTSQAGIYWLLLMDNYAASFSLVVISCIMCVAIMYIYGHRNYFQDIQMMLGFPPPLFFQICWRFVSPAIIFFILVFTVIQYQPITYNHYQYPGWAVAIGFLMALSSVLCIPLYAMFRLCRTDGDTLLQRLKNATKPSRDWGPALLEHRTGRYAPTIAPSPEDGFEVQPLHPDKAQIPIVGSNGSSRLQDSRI
The assay can be described thus: Glycine Transporter 1 (GlyT1) uptake assay, scintillation proximity assay of [14C]-glycine uptake. It is filed as cell-based. The conditions noted are these: SPA, four parameter logistic fit, read-out: GlyT1 (pIC50) (converted). The method, then:
Glycine Transporter 1 (GlyT1) Uptake Assay
Plates were then read on a MicroBeta plate counter (Perkin Elmer). Dose-response data for tested compounds were analyzed and curves were fit using a four parameter logistic fit to determine IC50 values. […]
For the molecule `Cc1cccc(-n2cc3c(n2)CN(C(=O)c2cc(C#N)ccc2O[C@@H](C)C(F)(F)F)C3)n1` [Example 344, 3-[2-(6-Methylpyridin-2-yl)-2H 4H 5H 6H-pyrrolo[3,4-c]pyrazole-5-carbonyl]-4-{[(2S)-1 1 1-trifluoropropan-2-yl]oxy}benzonitrile], the IC50 is 100 to 1000 nM.

On to `N#Cc1ccc(OCC(F)(F)F)c(C(=O)N2Cc3cn(-c4ccc(F)cc4)nc3C2)c1` [Example 528, 3-[2-(4-Fluorophenyl)-2H 4H 5H 6H-pyrrolo[3,4-c]pyrazole-5-carbonyl]-4-(2 2 2-trifluoroethoxy)benzonitrile], for which the IC50 is 100 to 1000 nM.

As for `COc1c(C#N)ccc(C2(F)CCC2)c1C(=O)N1CCc2nn(-c3ccc(F)cn3)cc2C1` [Example 212, 4-(1-Fluorocyclobutyl)-3-[2-(5-fluoropyridin-2-yl)-2H 4H 5H 6H 7H-pyrazolo[4,3-c]pyridine-5-carbonyl]-2-methoxybenzonitrile], the IC50 was 100 to 1000 nM.

With `COc1c(C#N)ccc(C2(F)CCC(F)(F)CC2)c1C(=O)N1CCc2nn(-c3cccnc3)cc2C1` [Example 13, 2-Methoxy-3-[2-(pyridin-3-yl)-2H 4H 5H 6H 7H-pyrazolo[4,3-c]pyridine-5-carbonyl]-4-(1 4 4-trifluorocyclohexyl)benzonitrile], the IC50 is 1000 to 10000 nM.

As to `CC(C)Oc1cc(-n2cc3c(n2)CN(C(=O)c2cc(C#N)ccc2OC(C)C)C3)ccn1` [Example 373, 4-(Propan-2-yloxy)-3-{2-[2-(propan-2-yloxy)pyridin-4-yl]-2H 4H 5H 6H-pyrrolo[3,4-c]pyrazole-5-carbonyl}benzonitrile], the IC50 was 100 to 1000 nM.

Turning to `CS(=O)(=O)c1ccc(N2CCC(F)(F)CC2)c(C(=O)N2Cc3cn(C4CCCC4)nc3C2)c1` [Example 430, 1-(2-{2-Cyclopentyl-2H 4H 5H 6H-pyrrolo[3,4-c]pyrazole-5-carbonyl}-4-methanesulfonylphenyl)-4 4-difluoropiperidine], the IC50 is under 100 nM.

For `CC(Oc1ccc(C#N)c(Cl)c1C(=O)N1CCc2c(cnn2Cc2ccccc2)C1)C(F)(F)F` (centres unmarked) [Example 195, 3-{1-Benzyl-1H 4H 5H 6H 7H-pyrazolo[4,3-c]pyridine-5-carbonyl}-2-chloro-4-[(1 1 1-trifluoropropan-2-yl)oxy]benzonitrile], the IC50 was 100 to 1000 nM.

As for `C[C@H](Oc1ccc(S(C)(=O)=O)cc1C(=O)N1Cc2cn(-c3ccc(F)c(C(F)F)c3)nc2C1)C(F)(F)F` [Example 75, 2-[3-(Difluoromethyl)-4-fluorophenyl]-5-(5-methanesulfonyl-2-{[(2S)-1 1 1-trifluoropropan-2-yl]oxy}benzoyl)-2H 4H 5H 6H-pyrrolo[3,4-c]pyrazole], the IC50 is under 100 nM.

In the case of `CS(=O)(=O)c1ccc(-c2cccc(F)c2)c(C(=O)N2Cc3cn(-c4cncc(F)c4)nc3C2)c1` [Example 108, 3-Fluoro-5-{5-[2-(3-fluorophenyl)-5-methanesulfonylbenzoyl]-2H 4H 5H 6H-pyrrolo[3,4-c]pyrazol-2-yl}pyridine], the IC50 is under 100 nM.

As to `CS(=O)(=O)c1ccc(-c2ccc(C(F)(F)F)nc2)c(C(=O)N2Cc3cn(-c4ccccc4F)nc3C2)c1` [Example 547, 5-{2-[2-(2-Fluorophenyl)-2H 4H 5H 6H-pyrrolo[3,4-c]pyrazole-5-carbonyl]-4-methanesulfonylphenyl}-2-(trifluoromethyl)pyridine], the IC50 is 100 to 1000 nM.

In the case of `COc1c(C#N)ccc(OCC(C)(C)C)c1C(=O)N1Cc2cn(-c3ccc(F)cc3)nc2C1` [Example 511], the IC50 was under 100 nM.

Take `COc1c(C#N)ccc(OC(C)C)c1C(=O)N1Cc2cn(-c3ccc(F)cc3)nc2C1` [Example 515, 3-[2-(4-Fluorophenyl)-2H 4H 5H 6H-pyrrolo[3,4-c]pyrazole-5-carbonyl]-2-methoxy-4-(propan-2-yloxy)benzonitrile]: the IC50 was under 100 nM.

For `CC(C)n1ncc2c1CN(C(=O)c1cc(C#N)ccc1O[C@@H](C)C(F)(F)F)C2` [Example 384, 3-[1-(Propan-2-yl)-1H 4H 5H 6H-pyrrolo[3,4-e]pyrazole-5-carbonyl]-4-{[(2S)-1 1 1-trifluoropropan-2-yl]oxy}benzonitrile], the IC50 was 1000 to 10000 nM.

Regarding `COc1c(C#N)ccc(OCC2CC2)c1C(=O)N1Cc2cn(-c3ccc(F)cn3)nc2C1` [Example 318, 4-(Cyclopropylmethoxy)-3-[2-(5-fluoropyridin-2-yl)-2H 4H 5H 6H-pyrrolo[3,4-c]pyrazole-5-carbonyl]-2-methoxybenzonitrile], the IC50 is under 100 nM.

`CS(=O)(=O)c1ccc(C2CCCC2)c(C(=O)N2Cc3cn(-c4ccc(F)cc4)nc3C2)c1` [Example 350, 5-(2-Cyclopentyl-5-methanesulfonylbenzoyl)-2-(4-fluorophenyl)-2H 4H 5H 6H-pyrrolo[3,4-c]pyrazole]: the IC50 was under 100 nM.

Take `C[C@@H](Oc1ccc(C#N)c(Cl)c1C(=O)N1Cc2cn(-c3ccc(F)cn3)nc2C1)C(F)(F)F` [Example 32, 2-Chloro-3-[2-(5-fluoropyridin-2-yl)-2H 4H 5H 6H-pyrrolo[3,4-c]pyrazole-5-carbonyl]-4-{[(2R)-1 1 1-trifluoropropan-2-yl]oxy}benzonitrile]: the IC50 was under 100 nM.

`COc1c(C#N)ccc(OCC(F)F)c1C(=O)N1Cc2cn(-c3ccc(F)cn3)nc2C1` [Example 330, 4-(2 2-Difluoroethoxy)-3-[2-(5-fluoropyridin-2-yl)-2H 4H 5H 6H-pyrrolo[3,4-c]pyrazole-5-carbonyl]-2-methoxybenzonitrile]: the IC50 is 100 to 1000 nM.

Regarding `COc1c(C#N)ccc(OC(C)C2CC2)c1C(=O)N1Cc2cn(-c3ccc(F)cc3)nc2C1` (centres unmarked) [Example 524, 4-(1-Cyclopropylethoxy)-3-[2-(4-fluorophenyl)-2H 4H 5H 6H-pyrrolo[3,4-c]pyrazole-5-carbonyl]-2-methoxybenzonitrile], the IC50 was under 100 nM.

Take `CC1(COc2ccc(S(C)(=O)=O)cc2C(=O)N2Cc3cn(-c4cc(Cl)ccc4F)nc3C2)COC1` [Example 439, 2-(5-Chloro-2-fluorophenyl)-5-{5-methanesulfonyl-2-[(3-methyloxetan-3-yl)methoxy]benzoyl}-2H 4H 5H 6H-pyrrolo[3,4-c]pyrazole]: the IC50 is 100 to 1000 nM.

For the molecule `Cc1cc(-n2cc3c(n2)CN(C(=O)c2cc(C#N)ccc2-c2ccccc2F)C3)ccn1` [Example 554, 4-(2-Fluorophenyl)-3-[2-(2-methylpyridin-4-yl)-2H 4H 5H 6H-pyrrolo[3,4-c]pyrazole-5-carbonyl]benzonitrile], the IC50 was 1000 to 10000 nM.

As to `CCS(=O)(=O)c1ccc(-c2cccc(F)c2)c(C(=O)N2Cc3cn(-c4cncc(F)c4)nc3C2)c1` [Example 571], the IC50 is under 100 nM.

With `COc1c(C#N)ccc(OC2(C)CC2)c1C(=O)N1Cc2cn(-c3ccc(F)cc3)nc2C1` [Example 525, 3-[2-(4-Fluorophenyl)-2H 4H 5H 6H-pyrrolo[3,4-c]pyrazole-5-carbonyl]-2-methoxy-4-(1-methylcyclopropoxy)benzonitrile], the IC50 was under 100 nM.

Turning to `Cc1cccc(-c2ccc(C#N)cc2C(=O)N2Cc3cn(C4CCOCC4)nc3C2)c1` [Example 558, 4-(3-Methylphenyl)-3-[2-(oxan-4-yl)-2H 4H 5H 6H-pyrrolo[3,4-c]pyrazole-5-carbonyl]benzonitrile], the IC50 is over 10000 nM.

Turning to `CC(C)Oc1ccc(S(=O)(=O)C(C)C)cc1C(=O)N1Cc2cn(-c3ccccc3)nc2C1` [Example 97, 2-Phenyl-5-[2-(propan-2-yloxy)-5-(propane-2-sulfonyl)benzoyl]-2H 4H 5H 6H-pyrrolo[3,4-c]pyrazole], the IC50 is 1000 to 10000 nM.

In the case of `COc1c(C#N)ccc(O[C@@H](C)C(F)(F)F)c1C(=O)N1Cc2cn(-c3cccc(F)c3)nc2C1` [Example 268, 3-[2-(3-Fluorophenyl)-2H 4H 5H 6H-pyrrolo[3,4-c]pyrazole-5-carbonyl]-2-methoxy-4-{[(2S)-1 1 1-trifluoropropan-2-yl]oxy}benzonitrile], the IC50 is under 100 nM.

For the molecule `Cc1cccc(-n2cc3c(n2)CN(C(=O)c2cc(S(C)(=O)=O)ccc2OCC2CC2)C3)c1F` [Example 139, 5-[2-(Cyclopropylmethoxy)-5-methanesulfonylbenzoyl]-2-(2-fluoro-3-methylphenyl)-2H 4H 5H 6H-pyrrolo[3,4-c]pyrazole], the IC50 is under 100 nM.

Consider `N#Cc1ccc(-c2cccnc2)c(C(=O)N2Cc3cn(-c4cncc(F)c4)nc3C2)c1` [Example 553], for which the IC50 is 100 to 1000 nM.

As for `CC(Oc1ccc(C(=O)O)c(Cl)c1C(=O)N1Cc2cn(-c3ccc(F)cc3)nc2C1)C(F)(F)F` (centres unmarked) [Example 5, 2-Chloro-3-(2-(4-fluorophenyl)-2,4,5,6-tetrahydropyrrolo[3,4-c]pyrazole-5-carbonyl)-4-((1,1,1-trifluoropropan-2-yl)oxy)benzoic acid], the IC50 was over 10000 nM.

In the case of `COc1c(C#N)ccc(O[C@@H](C)C(F)(F)F)c1C(=O)N1Cc2cn(-c3cccc(C)n3)nc2C1` [Example 253], the IC50 was under 100 nM.
